Assay results as given in ChEMBL document CHEMBL1201862, “PubChem BioAssay data set” (2004).
Where a name gives a salt, the structure may show the parent alone.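 Results reflect a 48-hour exposure of cells in 96-well plates to compound at five concentrations. GI50 is the concentration that inhibits growth by half.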 The source made the active and inactive calls. Rule as the data show it: active = GI50 up to about 1.1 µM and inactive = higher.

Legend:
Assay in all cases: inhibition of tumour cell growth, NCI panel, 48 h
ACHN = system: ACHN
TK-10 = system: TK-10
A498 = system: A498
RPMI-8226 = system: RPMI-8226
HCT-15 = system: HCT-15
RXF 393 = system: RXF 393
786-0 = system: 786-0
M14 = system: M14
MDA-MB-435 = system: MDA-MB-435
UO-31 = system: UO-31
BT-549 = system: BT-549
LOX IMVI = system: LOX IMVI
SW-620 = system: SW-620
SNB-75 = system: SNB-75
OVCAR-5 = system: OVCAR-5
NCI-H226 = system: NCI-H226
UACC-257 = system: UACC-257
SK-MEL-2 = system: SK-MEL-2
HCT-116 = system: HCT-116
DU-145 = system: DU-145

| Structure (SMILES) | GI50 (ACHN) | GI50 (TK-10) | GI50 (A498) | GI50 (RPMI-8226) | GI50 (HCT-15) | GI50 (RXF 393) | GI50 (786-0) | GI50 (M14) | GI50 (MDA-MB-435) | GI50 (UO-31) | GI50 (BT-549) | GI50 (LOX IMVI) | GI50 (SW-620) | GI50 (SNB-75) | GI50 (OVCAR-5) | GI50 (NCI-H226) | GI50 (UACC-257) | GI50 (SK-MEL-2) | GI50 (HCT-116) | GI50 (DU-145) |
| --- | --- | --- | --- | --- | --- | --- | --- | --- | --- | --- | --- | --- | --- | --- | --- | --- | --- | --- | --- | --- |
| O=C1OCC2=C1C(c1ccc(Cl)cc1)c1cc3c(cc1O2)OCO3 (stereo not given) | 6.21 µM (inactive) | 8.05 µM (inactive) | 8.24 µM (inactive) | 3.46 µM (inactive) | 2.83 µM | 4.06 µM (inactive) | 4.65 µM (inactive) | 4.08 µM (inactive) | 0.778 µM (active) | 10.1 µM (inactive) | 3.37 µM (inactive) | 3.66 µM (inactive) | 2.88 µM (inactive) | 2.49 µM (inactive) | > 23.9 µM (inactive) | > 100 µM (inactive) | > 21.8 µM (inactive) | 3.2 µM (inactive) | 3 µM (inactive) | 4.15 µM (inactive) |
| COC(=O)C(N)CCCC(N)C(=O)NC(C)C(=O)NC(CCC(=O)NCCNCCNc1c2ccccc2nc2cccc([N+](=O)[O-])c12)C(N)=O (stereo not given) | 10.2 µM (inactive) | 16.2 µM (inactive) | 17.4 µM (inactive) | 5.32 µM (inactive) | 14.2 µM | 8.51 µM (inactive) | 5.12 µM (inactive) | 13.4 µM (inactive) | 6.93 µM (inactive) | 21.9 µM (inactive) | 16.3 µM (inactive) | 14.7 µM (inactive) | 9.86 µM (inactive) | 10.4 µM (inactive) | 35.2 µM (inactive) | 10.9 µM (inactive) | 19.5 µM (inactive) | 8.51 µM (inactive) | 4.63 µM (inactive) | 6.28 µM (inactive) |
| CC1(C)CCCCCCC2CC2CCCCCC(C)(C)C1=O (stereo not given) | > 100 µM (inactive) | > 100 µM (inactive) | > 100 µM (inactive) | 24.4 µM (inactive) | 78.7 µM | 24.3 µM (inactive) | 64 µM (inactive) | > 100 µM (inactive) | 49.9 µM (inactive) | > 100 µM (inactive) | > 100 µM (inactive) | 19.8 µM (inactive) | > 100 µM (inactive) | > 100 µM (inactive) | > 100 µM (inactive) | > 100 µM (inactive) | 37.8 µM (inactive) | 40.6 µM (inactive) | 39.1 µM (inactive) | > 100 µM (inactive) |
| Oc1ccc(C(O)C2CCCCN2)cc1O (stereo not given) [RIMITEROL HYDROBROMIDE] | > 100 µM (inactive) | > 100 µM (inactive) | > 100 µM (inactive) | 54.7 µM (inactive) | > 100 µM | > 100 µM (inactive) | 18.9 µM (inactive) | > 100 µM (inactive) | > 100 µM (inactive) | 32.1 µM (inactive) | > 100 µM (inactive) | 28.4 µM (inactive) | 46.7 µM (inactive) | > 100 µM (inactive) | > 100 µM (inactive) | > 100 µM (inactive) | 57.4 µM (inactive) | > 100 µM (inactive) | > 100 µM (inactive) | > 100 µM (inactive) |
